In patent US9951010B2, “Compounds as CRTH2 antagonist and uses thereof” (SUNSHINE LAKE PHARMA CO., LTD., priority 2014, dated 2018):
Structures can show the parent of a compound that is named as a salt.

Target: T1, CRTH2 receptor (Homo sapiens, UniProt Q9Y5Y4)
T1 construct: expressed in transfected cells; host or cells: CHO-K1/G cells
T1 sequence (Q9Y5Y4 1-395): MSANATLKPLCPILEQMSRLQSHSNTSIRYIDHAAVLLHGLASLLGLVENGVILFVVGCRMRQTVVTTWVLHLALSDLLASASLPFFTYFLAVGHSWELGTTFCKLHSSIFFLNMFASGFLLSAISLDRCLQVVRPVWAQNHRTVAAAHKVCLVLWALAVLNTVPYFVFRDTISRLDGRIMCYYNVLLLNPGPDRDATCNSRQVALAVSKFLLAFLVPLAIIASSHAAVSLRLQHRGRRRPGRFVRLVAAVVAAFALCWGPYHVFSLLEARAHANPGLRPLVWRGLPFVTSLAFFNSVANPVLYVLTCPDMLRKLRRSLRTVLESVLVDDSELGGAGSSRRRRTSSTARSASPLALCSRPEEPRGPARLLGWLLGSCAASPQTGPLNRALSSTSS
Assay: FLIPR detection of inhibitory activity against CRTH2 (CHO-K1/G cells, PGD2 as agonist)
Assay type: cell-based
Conditions: CHO-K1/G cells with stable expression of CRTH2 receptor, PGD2 at EC80, FLIPR
Experimental: The test compound was weighed accurately and then dissolved in a suitable amount of DMSO to prepare a stock solution at a concentration of 10 mM; after clear and transparent, the stock solution was subpackaged and cryostoraged at −20° C. for use. Before testing, the test compound was diluted with balanced salt solution (HBSS buffer, containing 4-(2-hydroxyethyl)piperazine-1-ethanesulfonicacid) at a concentration of 20 mM) to 5 times testing concentration.
CHO-K1/G cells with stable expression of CRTH2 receptor were prepared to 5 times testing concentration and seeded into 384-microwell plate, and incubated in an incubator at 37° C./5% CO2. After incubating for 18 hours, to the cells in 384-microwell plate was added 20 μL of dye followed by the addition of 10 μL of prepared test compound solution. And then the cell plate was incubated in the incubator at 37° C./5% CO2 for 1 hour, at last which was balanced at rt for 15 min. After adding 12.5 μL of positive agonist (PGD2) at a concentration of 5 times EC80 to each well of the cell plate, the RFU (fluorescence intensity) value of the test compound was detected.
The data were recorded from ScreenWorks (version 3.1), and collected and analyzed by using Excel and GraphPad Prism 6 software to calculate the values of IC50.

SMILES	IC50
Cc1c(C2CCC(N(C)C(=O)c3ccc4ccccc4n3)CC2)c2cc(F)ccc2n1CC(=O)O (single isomer, unassigned) [Example 17a, 2-(5-fluoro-2-methyl-3-(4-(N-methylquinoline-2-carboxamido)cyclohexyl)-1H-indol-1-yl)acetic acid hydrochloride]	600 nM
Cc1c(C2CCC(N(C)C(=O)c3ccc4ccccc4n3)CC2)c2cc(F)ccc2n1CC(=O)O (single isomer, unassigned) [Example 17b, 2-(5-fluoro-2-methyl-3-(4-(N-methylquinoline-2-carboxamido)cyclohexyl)-1H-indol-1-yl)acetic acid hydrochloride]	97.2 nM
Cc1c(C2CCC(NC(=O)c3ccc4cccnc4n3)CC2)c2cc(F)ccc2n1CC(=O)O (single isomer, unassigned) [Example 20, 2-(3-(4-(1,8-naphthyridine-2-carboxamido)cyclohexyl)-5-fluoro-2-methyl-1H-indol-1-yl)acetic acid hydrochloride]	39.8 nM
Cc1c(C2CCC(NC(=O)c3cccc4ncccc34)CC2)c2cc(F)ccc2n1CC(=O)O (single isomer, unassigned) [Example 26b, 2-(5-fluoro-2-methyl-3-(4-(quinoline-5-carboxamido)cyclohexyl)-1H-indol-1-yl)acetic acid hydrochloride]	83.9 nM
Cc1c(C2CCC(NS(=O)(=O)c3ccc(F)cc3F)CC2)c2cc(F)ccc2n1CC(=O)O (single isomer, unassigned) [Example 29b, 2-(3-(4-(2,4-difluorophenylsulfonamido)cyclohexyl)-5-fluoro-2-methyl-1H-indol-1-yl)acetic acid]	79.5 nM
O=C(O)Cn1cc(C2CCN(S(=O)(=O)c3ccc(F)cc3)CC2)c2ccccc21 [Control compound, reference compound]	6190 nM
Cc1c(C2CCN(C(=O)c3cccc4ccccc34)CC2)c2cc(F)ccc2n1CC(=O)O [Example 2, 2-(3-(1-(1-naphthoyl)piperidin-4-yl)-5-fluoro-2-methyl-1H-indol-1-yl)acetic acid]	674 nM
Cc1c(C2CCC(NC(=O)c3cccc4ccccc34)CC2)c2cc(F)ccc2n1CC(=O)O (stereo not drawn) [Example 3, 2-(3-(4-(1-naphthamido)cyclohexyl)-5-fluoro-2-methyl-1H-indol-1-yl)acetic acid]	265 nM
Cc1c(C2CCN(C(=O)c3ccc4ccccc4n3)CC2)c2cc(F)ccc2n1CC(=O)O [Example 4, 2-(5-fluoro-2-methyl-3-(1-(quinoline-2-carbonyl)piperidin-4-yl)-1H-indol-1-yl)acetic acid hydrochloride]	306 nM
Cc1c(C2=CCCN(C(=O)c3ccc4ccccc4n3)C2)c2cc(F)ccc2n1CC(=O)O [Example 7, 2-(5-fluoro-2-methyl-3-(1-(quinoline-2-carbonyl)-1,2,5,6-tetrahydropyridin-3-yl)-1H-indol-1-yl)acetic acid hydrochloride]	776 nM
Cc1c(C2=CCN(Cc3ccc4ccccc4n3)CC2)c2cc(F)ccc2n1CC(=O)O [Example 8, 2-(5-fluoro-2-methyl-3-(1-(quinolin-2-yl)methyl-1,2,3,6-tetrahydropyridin-4-yl)-1H-indol-1-yl)acetic acid dihydrochloride]	657 nM
Cc1c(C2=CCN(C(=O)NCc3ccc(F)cc3F)CC2)c2cc(F)ccc2n1CC(=O)O [Example 9a, 2-(3-(1-((2,4-difluorobenzyl)carbamoyl)-1,2,3,6-tetrahydropyridin-4-yl)-5-fluoro-2-methyl-1H-indol-1-yl)acetic acid]	192 nM
Cc1c(C2CCC(NC(=O)c3cccc4c(F)cccc34)CC2)c2cc(F)ccc2n1CC(=O)O (stereo not drawn) [Example 10, 2-(5-fluoro-3-(4-(5-fluoro-1-naphthamido)cyclohexyl)-2-methyl-1H-indol-1-yl)acetic acid]	545 nM
Cc1c(C2CCC(NC(=O)NCc3ccc(F)cc3F)CC2)c2cc(F)ccc2n1CC(=O)O (stereo not drawn) [Example 16, 2-(3-(4-(3-(2,4-difluorobenzyl)ureido)cyclohexyl)-5-fluoro-2-methyl-1H-indol-1-yl)acetic acid]	969 nM
Cc1c(C2CC(NC(=O)c3ccc4ccccc4n3)C2)c2cc(F)ccc2n1CC(=O)O (stereo not drawn) [Example 21, 2-(5-fluoro-2-methyl-3-(3-(quinoline-2-carboxamido)cyclobutyl)-1H-indol-1-yl)acetic acid hydrochloride]	185 nM
Cc1c(C2=CCCN(C(=O)c3cccc4ccccc34)C2)c2cc(F)ccc2n1CC(=O)O [Example 23, 2-(3-(1-(1-naphthoyl)-1,2,5,6-tetrahydropyridin-3-yl)-5-fluoro-2-methyl-1H-indol-1-yl)acetic acid]	866 nM
Cc1c(C2CCC(N(C)S(=O)(=O)c3ccc(F)cc3)CC2)c2cc(F)ccc2n1CC(=O)O (stereo not drawn) [Example 28, 2-(5-fluoro-3-(4-(4-fluoro-N-methylphenylsulfonamido)cyclohexyl)-2-methyl-1H-indol-1-yl) acetic acid]	138 nM
Cc1c(C2CC(NS(=O)(=O)c3ccc(F)cc3)C2)c2cc(F)ccc2n1CC(=O)O (stereo not drawn) [Example 32, 2-(5-fluoro-3-(3-(4-fluorophenylsulfonamido)cyclobutyl)-2-methyl-1H-indol-1-yl)acetic acid]	33.7 nM
Cc1c(C2CCN(S(=O)(=O)c3ccc(Cl)cc3F)CC2)c2cc(F)ccc2n1CC(=O)O [Example 34, 2-(5-fluoro-3-(1-((4-chloro-2-fluorophenyl)sulfonyl)piperidin-4-yl)-2-methyl-1H-indol-1-yl) acetic acid]	211 nM
Cc1c(C2CCN(S(=O)(=O)c3ccc(F)cc3Cl)CC2)c2cc(F)ccc2n1CC(=O)O [Example 35, 2-(5-fluoro-3-(1-((2-chloro-4-fluorophenyl)sulfonyl)piperidin-4-yl)-2-methyl-1H-indol-1-yl) acetic acid]	333 nM
Cc1c(C2CCN(S(=O)(=O)c3ccc(Cl)cc3Cl)CC2)c2cc(F)ccc2n1CC(=O)O [Example 36, 2-(5-fluoro-3-(1-((2,4-dichlorophenyl)sulfonyl)piperidin-4-yl)-2-methyl-1H-indol-1-yl)acetic acid]	422 nM
Cc1c(C2CCN(S(=O)(=O)c3ccc(O)cc3)CC2)c2cc(F)ccc2n1CC(=O)O [Example 37, 2-(5-fluoro-3-(1-((4-hydroxyphenyl)sulfonyl)piperidin-4-yl)-2-methyl-1H-indol-1-yl)acetic acid]	137 nM
Cc1c(C2CCN(S(=O)(=O)c3ccccc3F)CC2)c2cc(F)ccc2n1CC(=O)O [Example 39, 2-(5-fluoro-3-(1-((2-fluorophenyl)sulfonyl)piperidin-4-yl)-2-methyl-1H-indol-1-yl)acetic acid]	106 nM
Cc1c(C2CCCN(S(=O)(=O)c3ccc(F)cc3)C2)c2cc(F)ccc2n1CC(=O)O (stereo not drawn) [Example 40, 2-(5-fluoro-3-(1-((4-fluorophenyl)sulfonyl)piperidin-3-yl)-2-methyl-1H-indol-1-yl)acetic acid]	17.4 nM
Cc1c(C2CCN(S(=O)(=O)c3cccc4ccccc34)CC2)c2cc(F)ccc2n1CC(=O)O [Example 42, 2-(5-fluoro-2-methyl-3-(1-(naphthalen-1-ylsulfonyl)piperidin-4-yl)-1H-indol-1-yl)acetic acid]	283 nM
Cc1c(C2CCN(S(=O)(=O)c3ccccc3)CC2)c2cc(F)ccc2n1CC(=O)O [Example 46, 2-(5-fluoro-2-methyl-3-(1-(phenylsulfonyl)piperidin-4-yl)-1H-indol-1-yl)acetic acid]	317 nM
Cc1c(C2CCN(S(=O)(=O)c3ccc(Cl)cc3)CC2)c2cc(F)ccc2n1CC(=O)O [Example 47, 2-(3-(1-((4-chlorophenyl)sulfonyl)piperidin-4-yl)-5-fluoro-2-methyl-1H-indol-1-yl)acetic acid]	139 nM
